Results on 20 compounds are retold here after ChEMBL document CHEMBL4330141, “Synthesis and evaluation of novel substituted 1,2,3-triazolyldihydroquinolines as promising antitubercular agents” (Bioorg Med Chem Lett, 2019).

One series has as its system HEK-293T. The series can be described thus: Cytotoxicity against HEK293T cells after 48 hrs by MTT assay. To be noted: human. Type of series: cell-based.
For series [1], the system named is Mycobacterium tuberculosis. The series can be described thus: Antitubercular activity against Mycobacterium tuberculosis H37Rv measured after 1 week by microplate alamar blue assay. The format is functional. To be noted: 168 h.
The nature of series [2]: Protective index, ratio of MNTD50 for HEK293T cells to MIC for Mycobacterium tuberculosis H37Rv.

In brackets after ≈: the same amount, converted by molar mass.

As for `FC(F)(F)c1ccc(Cn2cc(C3=C(Cl)c4ccc(-c5cccs5)nc4CC3)nn2)cc1`, the MNTD50 in the series on HEK-293T came to 86 µg/mL. Moreover, in series [1], the MIC was 6.25 µg/mL (≈ 13.2 µM). The Ratio in series [2] is 13.76.
`ClC1=C(c2cn(Cc3ccc(Br)cc3)nn2)CCc2nc(-c3cccs3)ccc21`: the MNTD50 in the series with HEK-293T is 88 µg/mL. In series [1], this compound came in with an MIC of 3.12 µg/mL (≈ 6.45 µM). The Ratio in series [2] was 28.02.
In series [1], `CCc1ccc(Cn2cc(C3=C(Cl)c4ccc(-c5cccs5)nc4CC3)nn2)cc1` registered an MIC of 25 µg/mL (≈ 57.7 µM).
As to `NNC(=O)c1ccncc1` [ISONIAZID], in the series on HEK-293T, the MNTD50 worked out at 32 µg/mL. Also, in series [1], the MIC was found to be 0.1 µg/mL (≈ 0.729 µM).
Consider `Fc1ccc(Cn2cc(C3=C(Cl)c4ccc(-c5cccs5)nc4CC3)nn2)c(Cl)c1`, for which inhibition of growth in series [1] (MIC) required 25 µg/mL (≈ 54.7 µM).
`ClC1=C(c2cn(Cc3ccc(Cl)c(Cl)c3)nn2)CCc2nc(-c3cccs3)ccc21` gave a minimal inhibitory concentration (MIC) in series [1] of 25 µg/mL (≈ 52.8 µM).
Same read-out and setting: the value for `CO[C@H]1/C=C/O[C@@]2(C)Oc3c(C)c(O)c4c(O)c(c(/C=N/N5CCN(C)CC5)c(O)c4c3C2=O)NC(=O)/C(C)=C\C=C\[C@H](C)[C@H](O)[C@@H](C)[C@@H](O)[C@@H](C)[C@H](OC(C)=O)[C@@H]1C` [RIFAMPIN] was 0.2 µg/mL (≈ 0.243 µM); that for `COc1ccc(Cn2cc(C3=C(Cl)c4ccc(-c5cccs5)nc4CC3)nn2)cc1` was 25 µg/mL (≈ 57.5 µM).
For `O=[N+]([O-])c1ccc(Cn2cc(C3=C(Cl)c4ccc(-c5cccs5)nc4CC3)nn2)cc1`, in the series with HEK-293T, the MNTD50 is 69 µg/mL. The same compound had an MIC in series [1] of 12.5 µg/mL (≈ 27.8 µM). Further, the Ratio in series [2] is on record as 5.52.
`Fc1ccc(Cn2cc(C3=C(Cl)c4ccc(-c5cccs5)nc4CC3)nn2)cc1`: the MIC in series [1] came out at 25 µg/mL (≈ 59.1 µM).
Still for that read-out and setting: then `ClC1=C(c2cn(Cc3cccc(Br)c3)nn2)CCc2nc(-c3cccs3)ccc21`, with 25 µg/mL (≈ 51.7 µM).
Regarding `ClC1=C(c2cn(Cc3ccccc3)nn2)CCc2nc(-c3cccs3)ccc21`, the MNTD50 in the series with HEK-293T was found to be 112 µg/mL. In series [1], 1.56 µg/mL (≈ 3.85 µM) was the least that counted as inhibitory (MIC). Besides, the Ratio in series [2] worked out at 71.7.
`CC[C@@H](CO)NCCN[C@@H](CC)CO` [ETHAMBUTOL]: the MIC in series [1] came out at 3.13 µg/mL (≈ 15.3 µM).
With `COc1cccc(Cn2cc(C3=C(Cl)c4ccc(-c5cccs5)nc4CC3)nn2)c1`, the MNTD50 with HEK-293T is 98 µg/mL. In addition, the MIC in series [1] was 3.12 µg/mL (≈ 7.17 µM). Further, in series [2], the Ratio stood at 31.4.
The compound `Cc1ccc(Cn2cc(C3=C(Cl)c4ccc(-c5cccs5)nc4CC3)nn2)cc1` showed an MIC in series [1] of 25 µg/mL (≈ 59.7 µM).
Still for that read-out and setting: then `N#CC1=C(Cl)c2ccc(-c3cccs3)nc2CC1`, with 25 µg/mL (≈ 91.7 µM).
In series [1], `Cc1cc(C)c(Cn2cc(C3=C(Cl)c4ccc(-c5cccs5)nc4CC3)nn2)c(C)c1` came in with an MIC of 25 µg/mL (≈ 55.9 µM).
Still for that read-out and setting: then `O=C(O)c1cn(C2CC2)c2cc(N3CCNCC3)c(F)cc2c1=O` [CIPROFLOXACIN], with 1.56 µg/mL (≈ 4.71 µM).
On the same count and under the same terms, the value for `Fc1cc(Br)ccc1Cn1cc(C2=C(Cl)c3ccc(-c4cccs4)nc3CC2)nn1` was 25 µg/mL (≈ 49.8 µM).
`COc1cc(Cn2cc(C3=C(Cl)c4ccc(-c5cccs5)nc4CC3)nn2)cc(OC)c1OC` came in with an MNTD50 in the series with HEK-293T of 74 µg/mL. In series [1], this compound displayed an MIC of 12.5 µg/mL (≈ 25.3 µM). Also, the Ratio in series [2] was determined as 5.92.
